Measurements: ChEMBL document CHEMBL5331130, “Analysis of Structure-Activity Relationships of Novel Inhibitors of the Macrophage Infectivity Potentiator (Mip) Proteins of Neisseria meningitidis, Neisseria gonorrhoeae, and Burkholderia pseudomallei” (J Med Chem, 2023)
The source made the active and inactive calls. No cut-off for these calls is given here.

Legend:
[1] = Binding affinity to Burkholderia pseudomallei Mip measured after 1 hr by fluorescence polarization assay
[2] = test system: Burkholderia pseudomallei; test: Inhibition of Burkholderia pseudomallei Mip PPIase activity assessed as remaining activity using Suc-ALPF-pNA substrate measured at 400 nM by protease coupled assay relative to control
[3] = test system: Neisseria meningitidis; test: Inhibition of Neisseria meningitidis Mip PPIase activity assessed as remaining activity using Suc-ALPF-pNA substrate measured at 400 nM by protease coupled assay relative to control
[4] = test system: Neisseria meningitidis; test: Inhibition of Neisseria meningitidis Mip NEIS0004 assessed as remaining activity using Suc-ALPF-pNA substrate measured at 400 nM by protease coupled assay relative to control
[5] = test system: Burkholderia pseudomallei; test: Antimicrobial activity against Burkholderia pseudomallei K96243 infected in mouse RAW264.7 cells assessed as reduction in bacteria-induced cytotoxicity at 50 uM after 24 hrs by lactate dehydrogenase release assay relative to control; format: functional; design: scale not given: the % may be the effect or the level left
[6] = test system: Neisseria meningitidis; test: Antimicrobial activity against Neisseria meningitidis infected in mouse RAW264.7 cells assessed as reduction in bacteria-induced cytotoxicity at 50 uM after 24 hrs by lactate dehydrogenase release assay relative to control; format: functional; design: scale not given: the % may be the effect or the level left
[7] = test system: Neisseria gonorrhoeae; test: Antimicrobial activity against Neisseria gonorrhoeae infected in mouse RAW264.7 cells assessed as reduction in bacteria-induced cytotoxicity at 50 uM after 24 hrs by lactate dehydrogenase release assay relative to control; format: functional; design: scale not given: the % may be the effect or the level left

O=C(NCc1cccnc1)[C@@H](Cc1ccccc1)NC(=O)[C@@H]1CCCCN1S(=O)(=O)Cc1ccccc1
Ki ([1]; read-out: Ki): 626 nM | Activity [2]: 21.5% | Activity [3]: 87.9% | Activity [4]: 45.4% | Activity [5]: 30.4% | Activity [6]: 60.8% | Activity [7]: 70.6%

O=C(O[C@H](Cc1ccccc1)C(=O)NCc1cccnc1)[C@H]1CCCCN1S(=O)(=O)c1ccccc1
Ki [1]: Not Active | Activity [2]: 155% | Activity [3]: 51.3% | Activity [4]: 108% | Activity [5]: 74.3% | Activity [6]: 21% | Activity [7]: 58.6%

O=C(NCc1cccnc1)C(CCc1cccnc1)OC(=O)[C@@H]1CCCCN1S(=O)(=O)c1ccccc1 (mixture of isomers)
Ki ([1]; read-out: Ki): 4160 nM | Activity [2]: 32.6% | Activity [3]: 82% | Activity [4]: 32.8% | Activity [5]: 35.6% | Activity [6]: 84.4% | Activity [7]: 52%

O=C(NCc1ccc[n+]([O-])c1)[C@H](Cc1ccc(F)cc1)NC(=O)[C@@H]1CCCCN1S(=O)(=O)Cc1ccc(F)cc1
Ki ([1]; read-out: Ki): 1310 nM | Activity [2]: 40.9% | Activity [3]: 49.4% | Activity [4]: 24% | Activity [5]: 51.7% | Activity [6]: 52.8% | Activity [7]: 44.2%

O=C(NCc1cccnc1)C(CCc1ccccc1)COC(=O)[C@H]1CCCCN1S(=O)(=O)Cc1ccccc1 (mixture of isomers)
Ki [1]: Not Active | Activity [2]: 140% | Activity [3]: 93.7% | Activity [4]: 119% | Activity [5]: 95.7% | Activity [6]: 21.2%

CC(C)C[C@H](OC(=O)[C@@H]1CCCCN1S(=O)(=O)Cc1ccccc1)C(=O)NCc1cccnc1
Ki ([1]; read-out: Ki): 60.5 nM | Activity [2]: 4.8% | Activity [3]: 35.6% | Activity [4]: 3.8% | Activity [5]: 87.8% | Activity [6]: 13% | Activity [7]: 19.1%

O=C(NCc1cccnc1)C(CCc1ccccc1)COC(=O)[C@@H]1CCCCN1S(=O)(=O)Cc1ccccc1 (mixture of isomers)
Ki ([1]; read-out: Ki): 207 nM | Activity [2]: 28.7% | Activity [3]: 47% | Activity [4]: 8.4% | Activity [5]: 93.4% | Activity [6]: 16.4% | Activity [7]: 63.5%

O=C(NCc1cccnc1)[C@@H](CCc1ccccc1)NC(=O)[C@@H]1CCCCN1S(=O)(=O)Cc1ccccc1
Ki ([1]; read-out: Ki): 320 nM | Activity [2]: 23.4% | Activity [3]: 83.7% | Activity [4]: 39.9% | Activity [5]: 88.7% | Activity [6]: 69.9% | Activity [7]: 41.9%

CC(C)C[C@H](NC(=O)[C@@H]1CCCCN1S(=O)(=O)Cc1ccc(F)cc1)C(=O)NCc1cccnc1
Ki ([1]; read-out: Ki): 45.6 nM | Activity [2]: 5.8% | Activity [3]: 23.6% | Activity [4]: 4.2% | Activity [5]: 46.8% | Activity [6]: 56.2% | Activity [7]: 61.7%

CC[C@H](C)[C@H](OC(=O)C1CCCCN1S(=O)(=O)Cc1ccccc1)C(=O)NCc1cccnc1 (mixture of isomers)
Ki ([1]; read-out: Ki): 3130 nM | Activity [2]: 16.8% | Activity [3]: 73.3% | Activity [4]: 9.4% | Activity [5]: 94.3% | Activity [6]: 58% | Activity [7]: 35.4%

O=C(N[C@@H](Cc1ccccc1)C(=O)NCc1ccc[n+]([O-])c1)C1CCCCN1S(=O)(=O)Cc1ccccc1 (mixture of isomers)
Ki ([1]; read-out: Ki): 4450 nM | Activity [2]: 51.9% | Activity [3]: 66.7% | Activity [4]: 45.5% | Activity [5]: 46.2% | Activity [6]: 76% | Activity [7]: 45.4%

CC(C)[C@H](OC(=O)C1CCCCN1S(=O)(=O)Cc1ccccc1)C(=O)NCc1cccnc1 (mixture of isomers)
Ki ([1]; read-out: Ki): 1080 nM | Activity [2]: 13.9% | Activity [3]: 25.2% | Activity [4]: 10.9% | Activity [5]: 96.8% | Activity [6]: 52.5% | Activity [7]: 65.1%

O=C(NCc1cccnc1)[C@@H](NC(=O)[C@@H]1CCCCN1S(=O)(=O)Cc1ccc(F)cc1)c1ccc(F)cc1
Ki ([1]; read-out: Ki): 17 nM | Activity [2]: 13.5% | Activity [3]: 43.3% | Activity [4]: 30.6% | Activity [5]: 46.7% | Activity [6]: 51.4% | Activity [7]: 31.4%

COCCOc1cc(OCCOC)cc(C(=O)NCCOC(=O)[C@@H]2CCCCN2S(=O)(=O)Cc2ccccc2)c1
Ki ([1]; read-out: Ki): 1060 nM | Activity [2]: 52.3% | Activity [3]: 85% | Activity [4]: 88.9% | Activity [5]: 71% | Activity [6]: 19.6% | Activity [7]: 21.5%

O=C(NCc1cccnc1)[C@@H](Cc1ccccc1)OC(=O)[C@@H]1CCCCN1S(=O)(=O)c1ccccc1
Ki ([1]; read-out: Ki): 41100 nM | Activity [2]: 151% | Activity [3]: 51.1% | Activity [4]: 106% | Activity [5]: 65.9% | Activity [6]: 26% | Activity [7]: 73.2%

O=C(NCc1cccnc1)[C@H](Cc1ccccc1)OC(=O)[C@@H]1CCCCN1S(=O)(=O)c1ccccc1
Ki ([1]; read-out: Ki): 122 nM | Activity [2]: 7% | Activity [3]: 10% | Activity [4]: 6.7% | Activity [5]: 72.5% | Activity [6]: 41.5% | Activity [7]: 64.6%

O=C(NCCOC(=O)[C@@H]1CCCCN1S(=O)(=O)Cc1ccccc1)c1cccnc1
Ki ([1]; read-out: Ki): 3960 nM | Activity [2]: 50.3% | Activity [3]: 52.2% | Activity [4]: 61.9% | Activity [5]: 68.9% | Activity [6]: 41.1% | Activity [7]: 27.1%

O=C(NCc1cccnc1)[C@H](CCc1ccccc1)COC(=O)[C@@H]1CCCCN1S(=O)(=O)Cc1ccccc1
Ki ([1]; read-out: Ki): 3380 nM | Activity [2]: 101% | Activity [3]: 83.5% | Activity [4]: 70% | Activity [5]: 97.6% | Activity [6]: 67.7% | Activity [7]: 53.6%

O=C(NCc1cccnc1)[C@@H](CCc1ccccc1)COC(=O)[C@@H]1CCCCN1S(=O)(=O)Cc1ccccc1
Ki ([1]; read-out: Ki): 15.3 nM | Activity [2]: 14.8% | Activity [3]: 54% | Activity [4]: 11.1% | Activity [5]: 70.6% | Activity [6]: 16% | Activity [7]: 19.8%

O=C(NCc1cccnc1)[C@H](Cc1ccc(F)cc1)NC(=O)[C@@H]1CCCCN1S(=O)(=O)Cc1ccc(F)cc1
Ki ([1]; read-out: Ki): 18.8 nM | Activity [2]: 12.5% | Activity [3]: 11.5% | Activity [4]: 37.2% | Activity [5]: 68% | Activity [6]: 47.9% | Activity [7]: 50.8%

O=C(NCc1cccnc1)[C@H](CCc1ccccc1)NC(=O)[C@@H]1CCCCN1S(=O)(=O)Cc1ccccc1
Ki ([1]; read-out: Ki): 10.5 nM | Activity [2]: 17.6% | Activity [3]: 44.8% | Activity [4]: 12.9% | Activity [5]: 75.4% | Activity [6]: 34.1% | Activity [7]: 71.5%

CC(C)C[C@H](OC(=O)C1CCCCN1S(=O)(=O)Cc1ccccc1)C(=O)NCc1cccnc1 (mixture of isomers)
Ki ([1]; read-out: Ki): 15.8 nM | Activity [2]: 17.4% | Activity [3]: 22.1% | Activity [4]: 3.4% | Activity [5]: 93.2% | Activity [6]: 36.9%

O=C(O[C@@H](Cc1ccccc1)C(=O)NCc1cccnc1)C1CCCCN1S(=O)(=O)Cc1ccccc1 (mixture of isomers)
Ki ([1]; read-out: Ki): 48.8 nM | Activity [2]: 15.9% | Activity [3]: 14% | Activity [4]: 6.9% | Activity [5]: 68.5% | Activity [6]: 38.4% | Activity [7]: 65.1%

C#CCOc1ccc(C[C@H](NC(=O)[C@@H]2CCCCN2S(=O)(=O)Cc2ccc(F)cc2)C(=O)NCc2cccnc2)cc1
Ki ([1]; read-out: Ki): 34.3 nM | Activity [2]: 4.4% | Activity [3]: 12.3% | Activity [4]: 4.9% | Activity [5]: 55.4% | Activity [6]: 45.7% | Activity [7]: 35.2%

CC(C)C[C@@H](OC(=O)[C@@H]1CCCCN1S(=O)(=O)Cc1ccccc1)C(=O)NCc1cccnc1
Ki ([1]; read-out: Ki): 2520 nM | Activity [2]: inactive | Activity [3]: inactive | Activity [4]: inactive

CC(C)C[C@H](NC(=O)[C@@H]1CCCCN1S(=O)(=O)Cc1ccc(F)cc1)C(=O)NCc1ccc[n+]([O-])c1
Ki ([1]; read-out: Ki): 148 nM | Activity [2]: 21% | Activity [3]: 44.4% | Activity [4]: 23.8% | Activity [5]: 61.5% | Activity [6]: 71.3% | Activity [7]: 56.4%

C=CCOC(=O)[C@H](Cc1ccc(F)cc1)NC(=O)[C@@H]1CCCCN1S(=O)(=O)Cc1ccc(F)cc1
Ki [1]: Not Active | Activity [2]: inactive | Activity [3]: inactive | Activity [4]: inactive

O=C(NCc1cccnc1)[C@H](Cc1ccccc1)NC(=O)[C@@H]1CCCCN1S(=O)(=O)Cc1ccccc1
Ki ([1]; read-out: Ki): 34.7 nM | Activity [2]: 23.7% | Activity [3]: 27.3% | Activity [4]: 8.5% | Activity [5]: 63.4% | Activity [6]: 25% | Activity [7]: 40.9%

O=C(NCc1cccnc1)[C@@H](NC(=O)[C@@H]1CCCCN1S(=O)(=O)Cc1ccccc1)c1ccc(F)cc1
Ki ([1]; read-out: Ki): 73.2 nM | Activity [2]: 11.3% | Activity [3]: 63.5% | Activity [4]: 27.2% | Activity [5]: 78.5% | Activity [6]: 22.6% | Activity [7]: 28%

O=C(NCc1cccnc1)[C@H](Cc1ccccc1)OC(=O)[C@H]1CCCCN1S(=O)(=O)c1ccccc1
Ki ([1]; read-out: Ki): 42400 nM | Activity [2]: 147% | Activity [3]: 27.2% | Activity [4]: 122% | Activity [5]: 82.7% | Activity [6]: 35.2% | Activity [7]: 68.4%
